In patent US20130029981A1, “COMPOUNDS, COMPOSITIONS, AND METHODS FOR CONTROLLING BIOFILMS” (Katholieke Universiteit Leuven, priority 2009, published 2013):
Several values for one entry are separate records, joined by “and”; a condition that tells them apart may be missing. Equal entries are not always repeated. Where two headings read alike, the source gives them in different places.

Tests used:
S. Typhimurium ATCC14028 = experiment: Static peg assay for prevention of biofilm formation (Calgary device, crystal violet); format: cell-based, Salmonella Typhimurium; settings: 25° C.
How it was run: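 Calgary 96-peg device, ca. 10^6 cells of ATCC14028 per well in TSB 1/20 for 24 h at 25° C (or 48 h at 16° C, medium and compound renewed at 24 h), or in CFA broth for 24 h at 37° C, static, with two-fold compound dilutions. Crystal violet stain, acetic acid extraction, OD570. IC50 from 2–3 independent experiments.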

[1] = test system: Pseudomonas aeruginosa PA14; experiment: as above; format: cell-based
How it was run: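 P. aeruginosa PA14 overnight TSB culture diluted 1:100 into broth with two-fold compound dilutions, biofilms grown 24 h static on polystyrene pegs of a Calgary device at 25 °C (TSB 1/20), 30 °C or 37 °C (CFA and/or LBNS). Biofilm quantified by crystal violet, extracted with 30% acetic acid, A570.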

[2] = Table 11, read-out: IC50 (biofilm formation)
[3] = Table 14, read-out: IC50 biofilm inhibition
[4] = Table 18, read-out: S. Typhimurium IC50 (biofilm formation)
[5] = 25° C., Table 12, read-out: IC50 (biofilm formation)
[6] = 25° C., Table 14, read-out: IC50 biofilm inhibition
[7] = 25° C., Table 18, read-out: P. aeruginosa IC50 (biofilm formation)
[8] = 37° C., read-out: IC50 (biofilm formation)

Row | Compound | IC50 (S. Typhimurium ATCC14028; [2]) | IC50 (S. Typhimurium ATCC14028; [3]) | IC50 (S. Typhimurium ATCC14028; [4]) | IC50 [1, 5] | IC50 [1, 6] | IC50 [1, 7] | IC50 [1, 8] | further results
1 | CCCCCCN1c2nccc[n+]2CC1(O)c1ccc([N+](=O)[O-])cc1.[Br-] (stereo not shown) [Compound 34] | 46.8 µM | 46.8 µM | – | – | – | – | – | IC50 (S. Typhimurium ATCC14028; 24 hours, Table 15, read-out: (1) IC50 (biofilm inhibition)): 54.7 µM; IC50 (S. Typhimurium ATCC14028; Table 16, read-out: S. Typhimurium IC50 (biofilm formation)): 54.7 µM; IC50 ([1]; 25° C., 24 hours, Table 15, read-out: (2) IC50 (biofilm inhibition)): 10.9 µM; IC50 ([1]; 25° C., Table 16, read-out: P. aeruginosa IC50 (biofilm formation)): 12.4 µM
2 | OC1(c2ccc(Cl)cc2)C[n+]2cccnc2N1C1CCCCC1.[Br-] (stereo not shown) [Compound 64] | – | – | 33 µM | 4.94 µM | 4.94 µM | 10 µM | – | IC50 (S. Typhimurium ATCC14028; Table 11, listed as R1=cyclohexyl, R3=4-Cl—Ph, R4=H, read-out: IC50 (biofilm formation)): 43.8 µM and 35.6 µM; IC50 (S. Typhimurium ATCC14028; Table 14, listed as R1=Cyclohexyl, R3=4-ClPh, R4=H, read-out: IC50 biofilm inhibition): 43.8 µM and 35.6 µM
3 | O=[N+]([O-])c1ccc(C2(O)C[n+]3cccnc3N2C2CCCCCCCCCCC2)cc1.[Br-] (stereo not shown) [Compound 69] | < 6.25 µM | < 6.25 µM | < 6.3 µM | 6.32 µM | 6.32 µM | 6.9 µM | 18.2 µM | –
4 | OC1(c2ccc(I)cc2)C[n+]2cccnc2N1Cc1ccccc1.[Br-] (stereo not shown) [Compound 73] | – | – | – | 8.61 µM | 8.61 µM | – | 175 µM | IC50 (S. Typhimurium ATCC14028; Table 11, listed as R1=Bn, R3=4-I—Ph, R4=H, read-out: IC50 (biofilm formation)): 30.7 µM and 26.9 µM; IC50 (S. Typhimurium ATCC14028; Table 14, listed as R1=Bn, R3=4-IPh, R4=H, read-out: IC50 biofilm inhibition): 26.9 µM; IC50 (S. Typhimurium ATCC14028; Table 14, listed as R1=Bn, R3=4-Iph, R4=H, read-out: IC50 biofilm inhibition): 30.7 µM; IC50 (S. Typhimurium ATCC14028; Table 19, read-out: IC50 (biofilm formation)): 36.7 µM
5 | OC1(c2ccc(-c3ccccc3)cc2)C[n+]2cccnc2N1C1CCCC1.[Br-] (stereo not shown) [R1=Cyclopentyl, R3=4-biphenylyl, R4=H, 1-cyclopentyl-2-hydroxy-2-(4-biphenylyl)-2,3-dihydro-1H-imidazo[1,2-a]pyrimidin-4-ium bromide] | – | – | – | – | – | – | – | IC50 (S. Typhimurium ATCC14028; Salmonella enterica, Table 11, read-out: IC50 (biofilm formation)): 14.9 µM; IC50 (S. Typhimurium ATCC14028; Salmonella enterica, Table 14, read-out: IC50 biofilm inhibition): 14.9 µM; IC50 ([1]; Pseudomonas aeruginosa, PA14, 25° C., Table 12, read-out: IC50 (biofilm formation)): 1.57 µM; IC50 ([1]; Pseudomonas aeruginosa, PA14, 25° C., Table 14, read-out: IC50 biofilm inhibition): 1.57 µM; IC50 ([1]; Pseudomonas aeruginosa, PA14, 37° C., read-out: IC50 (biofilm formation)): 62.1 µM
